The values below come from patent publication US11780830B2, “Triazolone derivatives or salts thereof and pharmaceutical compositions comprising the same” (YUHAN CORPORATION, priority 2018, dated 2023).

Assay type in all cases: biochemical
For one assay, the target named is T1, recombinant human VAP-1 (Homo sapiens, UniProt Q16853).
T1 construct: purchased R&D systems
T1 sequence (Q16853 1-763): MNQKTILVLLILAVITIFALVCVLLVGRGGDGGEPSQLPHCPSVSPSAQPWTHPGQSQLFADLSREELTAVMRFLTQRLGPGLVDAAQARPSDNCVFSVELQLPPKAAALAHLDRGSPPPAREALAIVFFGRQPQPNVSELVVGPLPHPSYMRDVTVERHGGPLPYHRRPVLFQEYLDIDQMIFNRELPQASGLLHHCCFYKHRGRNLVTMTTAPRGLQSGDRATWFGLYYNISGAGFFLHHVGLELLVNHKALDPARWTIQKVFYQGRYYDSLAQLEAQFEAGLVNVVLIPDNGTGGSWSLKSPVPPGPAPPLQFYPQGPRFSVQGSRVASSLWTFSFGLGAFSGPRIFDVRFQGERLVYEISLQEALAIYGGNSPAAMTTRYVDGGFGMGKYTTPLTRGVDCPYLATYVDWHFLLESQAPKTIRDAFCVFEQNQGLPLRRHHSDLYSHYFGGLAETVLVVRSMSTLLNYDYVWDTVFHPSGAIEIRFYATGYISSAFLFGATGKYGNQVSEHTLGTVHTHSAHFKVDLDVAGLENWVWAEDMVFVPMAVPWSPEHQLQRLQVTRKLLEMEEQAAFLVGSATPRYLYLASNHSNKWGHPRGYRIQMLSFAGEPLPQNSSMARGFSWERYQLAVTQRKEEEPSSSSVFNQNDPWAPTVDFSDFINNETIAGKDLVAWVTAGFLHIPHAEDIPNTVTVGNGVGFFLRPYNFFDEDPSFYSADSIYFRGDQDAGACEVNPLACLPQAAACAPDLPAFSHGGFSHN
The assay is described as follows: Activity on recombinant human VAP-1, HRP-coupled Amplex Red hydrogen peroxide assay. The following applies: substrate 1 mM benzylamine; compound incubated with enzyme at 37° C. for 30 minutes; pH 7.4; read-out: Inhibitory Activity (IC50, nM) human VAP-1. The procedure, abridged:
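8-point 1:3 dilutions, final DMSO <1%; 30 min enzyme preincubation, 37 °C, pH 7.4 phosphate. Start: 1 mM benzylamine + 200 uM Amplex Red + 1 U/mL HRP. Read ex544/em590 over 1-2 h; % rate decrease vs DMSO control, 4-parameter logistic IC50.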

Assay [1] deals with T2, recombinant human MAO-A (monoamine oxidase-A) (Homo sapiens, UniProt P21397).
T2 construct: purchased Sigma-Aldrich
T2 sequence (P21397 1-527): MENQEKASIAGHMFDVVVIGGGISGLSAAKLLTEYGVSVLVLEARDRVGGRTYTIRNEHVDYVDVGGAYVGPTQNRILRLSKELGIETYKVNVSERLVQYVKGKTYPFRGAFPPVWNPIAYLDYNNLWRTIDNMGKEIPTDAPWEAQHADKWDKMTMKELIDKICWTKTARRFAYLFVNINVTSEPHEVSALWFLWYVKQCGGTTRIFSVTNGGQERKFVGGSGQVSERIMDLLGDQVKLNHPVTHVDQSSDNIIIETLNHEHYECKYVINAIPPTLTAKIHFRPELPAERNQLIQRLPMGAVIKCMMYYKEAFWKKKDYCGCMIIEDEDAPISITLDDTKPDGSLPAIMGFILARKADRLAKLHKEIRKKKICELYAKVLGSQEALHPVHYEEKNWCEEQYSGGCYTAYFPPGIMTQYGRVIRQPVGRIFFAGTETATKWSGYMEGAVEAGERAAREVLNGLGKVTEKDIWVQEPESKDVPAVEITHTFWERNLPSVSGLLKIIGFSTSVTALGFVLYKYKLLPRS
The assay can be described thus: Activity on recombinant human MAO-A, method similar to the VAP-1 assay. The following applies: substrate 0.5 mM tyramine; read-out: Inhibitory Activity (IC50, nM) MAO-A. The procedure, abridged: (§1)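 HRP-coupled Amplex Red H2O2 assay, 50 mM sodium phosphate pH 7.4; compounds (8-point 1:3 series, final DMSO <1%) preincubated with enzyme 30 min at 37° C, then 200 uM Amplex Red, 1 U/mL HRP and substrate (MAO-A 0.5 mM tyramine; MAO-B 1 mM benzylamine) added. Resorufin fluorescence (ex 544/em 590 nm) read over 1-2 h; IC50 from four-parameter logistic fit.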

Assay [2] has as its target T3, recombinant human MAO-B (monoamine oxidase-B) (Homo sapiens, UniProt P27338).
T3 construct: purchased Sigma-Aldrich
T3 sequence (P27338 1-520): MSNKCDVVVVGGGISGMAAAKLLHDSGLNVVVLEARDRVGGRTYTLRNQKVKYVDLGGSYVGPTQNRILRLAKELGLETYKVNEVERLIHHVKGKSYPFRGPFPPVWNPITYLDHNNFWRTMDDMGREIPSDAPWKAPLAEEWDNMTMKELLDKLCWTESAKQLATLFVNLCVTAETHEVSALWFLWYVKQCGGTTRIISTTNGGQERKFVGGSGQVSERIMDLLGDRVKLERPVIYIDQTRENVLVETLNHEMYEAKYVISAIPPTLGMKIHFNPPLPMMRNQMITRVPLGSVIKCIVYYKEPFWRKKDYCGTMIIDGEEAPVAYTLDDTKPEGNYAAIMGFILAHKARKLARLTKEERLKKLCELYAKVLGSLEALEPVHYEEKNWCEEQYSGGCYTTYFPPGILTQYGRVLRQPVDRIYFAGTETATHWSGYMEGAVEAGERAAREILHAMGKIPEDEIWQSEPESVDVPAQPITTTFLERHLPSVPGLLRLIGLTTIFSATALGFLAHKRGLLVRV
The assay is described as follows: Activity on recombinant human MAO-B, method similar to the VAP-1 assay. The following applies: substrate 1 mM benzylamine; read-out: Inhibitory Activity (IC50, nM) MAO-B. Summed up:
as §1

Assay [3] addresses T4, recombinant human DAO (diamine oxidase) (Homo sapiens, UniProt P19801).
T4 construct: purchased R&D systems
T4 sequence (P19801 20-751): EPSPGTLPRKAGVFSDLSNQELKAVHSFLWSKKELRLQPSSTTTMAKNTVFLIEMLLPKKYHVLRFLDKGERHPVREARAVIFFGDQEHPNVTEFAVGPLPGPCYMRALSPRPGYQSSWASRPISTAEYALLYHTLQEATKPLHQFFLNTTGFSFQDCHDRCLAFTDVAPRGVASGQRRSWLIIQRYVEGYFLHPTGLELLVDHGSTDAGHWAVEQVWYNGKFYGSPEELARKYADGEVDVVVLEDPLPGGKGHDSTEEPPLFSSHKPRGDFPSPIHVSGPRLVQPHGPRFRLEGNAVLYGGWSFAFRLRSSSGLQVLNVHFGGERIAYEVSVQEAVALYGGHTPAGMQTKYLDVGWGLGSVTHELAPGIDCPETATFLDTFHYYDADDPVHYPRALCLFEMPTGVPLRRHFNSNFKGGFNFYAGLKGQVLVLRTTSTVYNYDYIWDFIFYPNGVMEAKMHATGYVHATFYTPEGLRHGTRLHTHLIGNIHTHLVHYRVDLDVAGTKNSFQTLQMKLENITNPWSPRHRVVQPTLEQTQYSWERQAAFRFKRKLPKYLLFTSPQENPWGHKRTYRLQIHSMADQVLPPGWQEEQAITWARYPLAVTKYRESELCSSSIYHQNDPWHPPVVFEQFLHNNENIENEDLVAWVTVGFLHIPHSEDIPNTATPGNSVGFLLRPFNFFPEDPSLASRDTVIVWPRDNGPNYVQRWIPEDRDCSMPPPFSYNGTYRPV
The assay can be described thus: Activity on recombinant human DAO, method similar to the VAP-1 assay. The following applies: substrate 1 mM putrescine; read-out: Inhibitory Activity (IC50, nM) DAO. The procedure, abridged: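 Inhibition of recombinant human diamine oxidase (DAO, R&D systems) was assessed by the same approach as the VAP-1 assay, using 1 mM putrescine as substrate. Hydrogen peroxide formed was detected through an HRP-coupled Amplex Red reaction yielding fluorescent resorufin, read at 544 nm excitation and 590 nm emission. IC50 values came from four-parameter logistic fitting in GraphPad Prism.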

Structures can show the parent of a compound that is named as a salt.

A word on the IC50: it is the concentration at which inhibition is half-maximal. Regarding `CC(C)(C)NS(=O)(=O)c1cncc(-c2ccc(Cn3cnn(C/C(=C/F)CN)c3=O)s2)c1` [Example 43, 5-[5-(1-[(2E)-2-(aminomethyl)-3-fluoroprop-2-en-1-yl]-5-oxo-1,5-dihydro-4H-1,2,4-triazol-4-ylmethyl)thiophen-2-yl]-N-tert-butylpyridin-3-sulfonamide hydrochloride], the IC50 at recombinant human VAP-1 was 4.1 nM; in assay [1], above 100000 nM; in assay [2] it was above 10000 nM; in assay [3] it was 110 nM.
The matching figures for `CC1(C)Oc2ccc(-c3ccc(Cn4cnn(C/C(=C/F)CN)c4=O)s3)cc2NC1=O` [Example 98, 6-[5-[[1-[(E)-2-(aminomethyl)-3-fluoro-allyl]-5-oxo-1,2,4-triazol-4-yl]methyl]-2-thienyl]-2,2-dimethyl-4H-1,4-benzoxazin-3-one]: 0.4 nM, above 100000 nM, 530 nM and 200 nM.
`NC/C(=C\F)Cn1ncn(Cc2ccc(-c3cccc(S(=O)(=O)N4CCCC4)c3)s2)c1=O` [Example 28, 2-[(2E)-2-(aminomethyl)-3-fluoroprop-2-en-1-yl]-4-(5-[3-(pyrrolidin-1-ylsulfonyl)phenyl]thiophen-2-ylmethyl)-2,4-dihydro-3H-1,2,4-triazol-3-one hydrochloride]: the IC50 at recombinant human VAP-1 was 0.5 nM; in assay [1], above 100000 nM; in assay [2] it was 200 nM; in assay [3] it was 120 nM.
With `NC/C(=C\F)Cn1ncn(Cc2ccc(/C=C/c3ccc(C(F)(F)F)cc3)s2)c1=O` [Example 119, 2-[(E)-2-(aminomethyl)-3-fluoro-allyl]-4-[[5-[(E)-2-[4-(trifluoromethyl)phenyl]vinyl]-2-thienyl]methyl]-1,2,4-triazol-3-one hydrochloride], the IC50 on recombinant human VAP-1 is 1.8 nM; in assay [1] it was above 100000 nM; in assay [2], 1200 nM; in assay [3], 860 nM.
The matching figures for `NC/C(=C/F)Cn1ncn(Cc2ccc(-c3ccc4nonc4c3)s2)c1=O` [Example 61, 2-[(2Z)-2-(aminomethyl)-3-fluoroprop-2-en-1-yl]-4-[5-(2,1,3-benzooxadiazol-5-yl)thiophen-2-yl]methyl-2,4-dihydro-3H-1,2,4-triazol-3-one hydrochloride]: 1.1 nM, 16000 nM, 10.1 nM and below 100 nM.
The matching figures for `CN1CC=C(c2ccc(Cn3cnn(C/C(=C/F)CN)c3=O)s2)CC1` [Example 58, 2-[(2E)-2-(aminomethyl)-3-fluoroprop-2-en-1-yl]-4-[5-(1-methyl-1,2,3,6-tetrahydropyridin-4-yl)thiophen-2-yl]methyl-2,4-dihydro-3H-1,2,4-triazol-3-one hydrochloride]: 3.9 nM, above 100000 nM, above 10000 nM and 780 nM.
For `CN1C(=O)COc2ccc(-c3ccc(Cn4cnn(C/C(=C/F)CN)c4=O)s3)cc21` [Example 96, 6-[5-(1-[(2E)-2-(aminomethyl)-3-fluoroprop-2-en-1-yl]-5-oxo-1,5-dihydro-4H-1,2,4-triazol-4-ylmethyl)thiophen-2-yl]-4-methyl-2H-1,4-benzoxazin-3(4H)-one hydrochloride], in that order: 0.8 nM, 87000 nM, 120 nM and 310 nM.
Regarding `NC/C(=C\F)Cn1ncn(Cc2ccc(/C=C/c3ccc(O)cc3)s2)c1=O` [Example 116, 2-[(2E)-2-(aminomethyl)-3-fluoroprop-2-en-1-yl]-4-(5-[(E)-2-(4-hydroxyphenyl)ethenyl]thiophen-2-ylmethyl)-2,4-dihydro-3H-1,2,4-triazol-3-one hydrochloride], the IC50 on recombinant human VAP-1 amounted to 0.6 nM; in assay [1], 4400 nM; in assay [2] it was 180 nM; in assay [3], 1700 nM.
On to `CC(C)c1nc(-c2cccc(-c3ccc(Cn4cnn(C/C(=C/F)CN)c4=O)s3)c2)no1` [Example 38, 2-[(2E)-2-(aminomethyl)-3-fluoroprop-2-en-1-yl]-4-[(5-3-[5-(propan-2-yl)-1,2,4-oxadiazol-3-yl]phenylthiophen-2-yl)methyl]-2,4-dihydro-3H-1,2,4-triazol-3-one hydrochloride], for which the half-inhibitory concentration (IC50) at recombinant human VAP-1 came to 2.8 nM; in assay [1], 7900 nM; in assay [2], 1030 nM; in assay [3], 2400 nM.
Turning to `NC/C(=C\F)Cn1ncn(Cc2ccc(-c3ccc4ocnc4c3)s2)c1=O` [Example 62, 2-[(2E)-2-(aminomethyl)-3-fluoroprop-2-en-1-yl]-4-[5-(1,3-benzooxazol-5-yl)thiophen-2-yl]methyl-2,4-dihydro-3H-1,2,4-triazol-3-one hydrochloride], the 50% inhibitory concentration (IC50) at recombinant human VAP-1 is 3.7 nM; in assay [1] it was 2100 nM; in assay [2], 310 nM; in assay [3], 530 nM.
